In data set [1] the target is T1, Nucleosome-remodeling factor subunit BPTF (Homo sapiens, UniProt Q12830). Kind of data set: Binding affinity to BPTF (unknown origin).
The target of data set [2] is T1, Nucleosome-remodeling factor subunit BPTF. Kind of data set: Inhibition of N-terminal GST-tagged human BPTF (2914 to 3037 residues) expressed in Escherichia coli BL21-CodonPlus (DE3) cells by HTRF assay. Background: TR-FRET usually uses a lanthanide donor and a delayed reading to cut background.
Data set [3] shares this target.
Description: Binding affinity to BPTF (unknown origin) expressed in Escherichia coli BL21 (DE3) cells by SPR analysis
Data set [4] has the same target. Kind of data set: Binding affinity to N-terminal GST-tagged human BPTF (2914 to 3037 residues) expressed in Escherichia coli BL21-CodonPlus (DE3) cells assessed as change in melting temperature at 25 uM by thermal shift assay.
The target is the same in data set [5]. Briefly: Binding affinity to N-terminal GST-tagged human BPTF (2914 to 3037 residues) expressed in Escherichia coli BL21-CodonPlus (DE3) cells assessed as change in melting temperature at 100 uM by thermal shift assay.
For data set [6] the target is unchanged. Briefly: Binding affinity to N-terminal GST-tagged human BPTF (2914 to 3037 residues) expressed in Escherichia coli BL21-CodonPlus (DE3) cells assessed as change in melting temperature at 50 uM by thermal shift assay.
Data set [7] shares this target. Briefly: Binding affinity to N-terminal GST-tagged human BPTF (2914 to 3037 residues) expressed in Escherichia coli BL21-CodonPlus (DE3) cells by SPR assay. (Surface plasmon resonance follows binding to a sensor surface in real time, without labels.)
The target is the same in data set [8]. Kind of data set: Binding affinity to N-terminal GST-tagged human BPTF (2914 to 3037 residues) expressed in Escherichia coli BL21-CodonPlus (DE3) cells assessed as change in melting temperature at 12.5 uM by thermal shift assay.
The target in data set [9] is SWI/SNF-related matrix-associated actin-dependent regulator of chromatin subfamily A member 2 (Homo sapiens) (UniProt P51531). Kind of data set: Binding affinity to SMARCA2-BRD (unknown origin) assessed as change in melting temperature at 50 uM by thermal shift assay.
Sequence of SWI/SNF-related matrix-associated actin-dependent regulator of chromatin subfamily A member 2 (Homo sapiens) (P51531 whole entry): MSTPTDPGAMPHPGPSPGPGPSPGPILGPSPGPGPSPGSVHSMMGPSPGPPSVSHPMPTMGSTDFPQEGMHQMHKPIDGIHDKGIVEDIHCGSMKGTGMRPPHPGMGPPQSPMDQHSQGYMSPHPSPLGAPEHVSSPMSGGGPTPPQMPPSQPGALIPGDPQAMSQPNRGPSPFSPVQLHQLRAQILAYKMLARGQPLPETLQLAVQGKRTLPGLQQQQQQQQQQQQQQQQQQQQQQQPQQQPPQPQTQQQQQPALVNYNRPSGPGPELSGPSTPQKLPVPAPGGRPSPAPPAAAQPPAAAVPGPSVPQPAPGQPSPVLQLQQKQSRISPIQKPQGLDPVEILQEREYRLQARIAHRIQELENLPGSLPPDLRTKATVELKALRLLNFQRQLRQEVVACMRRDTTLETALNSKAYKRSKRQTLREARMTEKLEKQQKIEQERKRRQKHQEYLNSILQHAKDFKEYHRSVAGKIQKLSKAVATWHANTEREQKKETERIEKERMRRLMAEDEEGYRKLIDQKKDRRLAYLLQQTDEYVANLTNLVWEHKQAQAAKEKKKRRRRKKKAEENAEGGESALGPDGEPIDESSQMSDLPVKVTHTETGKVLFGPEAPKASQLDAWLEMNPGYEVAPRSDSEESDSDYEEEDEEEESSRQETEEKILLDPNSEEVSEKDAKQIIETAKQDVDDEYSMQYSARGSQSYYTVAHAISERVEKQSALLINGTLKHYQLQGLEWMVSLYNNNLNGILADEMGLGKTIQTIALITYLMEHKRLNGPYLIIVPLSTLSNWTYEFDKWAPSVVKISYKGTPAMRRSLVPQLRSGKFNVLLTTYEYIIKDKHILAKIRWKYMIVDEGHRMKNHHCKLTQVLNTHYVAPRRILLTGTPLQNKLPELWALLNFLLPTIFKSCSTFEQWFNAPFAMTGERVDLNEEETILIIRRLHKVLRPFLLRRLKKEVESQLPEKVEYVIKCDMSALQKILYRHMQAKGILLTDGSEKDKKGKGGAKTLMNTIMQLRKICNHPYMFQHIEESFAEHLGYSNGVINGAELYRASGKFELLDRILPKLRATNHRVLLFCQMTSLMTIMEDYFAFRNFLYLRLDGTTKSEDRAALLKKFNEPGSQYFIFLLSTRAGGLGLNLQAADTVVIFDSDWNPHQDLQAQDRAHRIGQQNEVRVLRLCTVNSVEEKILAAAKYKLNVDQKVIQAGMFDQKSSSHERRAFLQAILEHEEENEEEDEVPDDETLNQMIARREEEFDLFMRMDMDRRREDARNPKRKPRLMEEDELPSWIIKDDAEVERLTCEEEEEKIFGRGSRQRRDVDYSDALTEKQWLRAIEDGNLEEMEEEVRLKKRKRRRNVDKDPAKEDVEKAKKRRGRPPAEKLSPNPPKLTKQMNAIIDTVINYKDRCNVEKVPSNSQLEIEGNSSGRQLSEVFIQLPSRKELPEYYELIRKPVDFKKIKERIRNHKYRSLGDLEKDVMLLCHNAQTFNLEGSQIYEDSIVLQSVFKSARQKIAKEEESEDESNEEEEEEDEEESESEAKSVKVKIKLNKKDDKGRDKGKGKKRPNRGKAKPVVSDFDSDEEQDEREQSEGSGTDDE
Data set [10] deals with MV4-11. Briefly: Downregulation of c-Myc protein expression in human MV4-11 cells after 24 hrs by Western blot analysis. It is filed as functional, cell-based. Conditions: dose 0.6-50 µM. For orientation: A western blot detects proteins with antibodies after separation by electrophoresis.
Data set [11] concerns MV4-11. Briefly: Induction of apoptosis in human MV4-11 cells at 5 to 20 uM after 24 hrs by Annexin V-FITC and propidium iodide staining based flow cytometry analysis. It is filed as functional, cell-based. Conditions: dose 5-20 µM.
Data set [12] addresses T1, Nucleosome-remodeling factor subunit BPTF. Briefly: Binding affinity to N-terminal GST-tagged human BPTF (2914 to 3037 residues) expressed in Escherichia coli BL21-CodonPlus (DE3) cells at 200 uM by CPMG NMR spectroscopy.
In data set [13] the test system is MV4-11. Briefly: Induction of cell cycle arrest in human MV4-11 cells assessed as accumulation at S phase after 24 hrs by propidium iodide staining based flow cytometry analysis. It is filed as functional.
In data set [14] the target is T1, Nucleosome-remodeling factor subunit BPTF. Briefly: Inhibition of BPTF in human MV4-11 cells assessed as reduction in bcl2 mRNA level incubated for 24 hrs by RT-PCR analysis. It counts as cell-based. Conditions: dose 2.5-20 µM.
Data set [15] deals with Bromodomain-containing protein 4 (Homo sapiens) (UniProt O60885). Kind of data set: Binding affinity to BRD4-BD2 (unknown origin) assessed as change in melting temperature at 50 uM by thermal shift assay.
The target in data set [16] is CREB-binding protein (Homo sapiens) (UniProt Q92793). Briefly: Inhibition of CBP-BRD (unknown origin) at 1 uM using acetylated H4 as substrate incubated for 1 hr by AlphaScreen assay.
For the next data set, the system named is HUVEC. Briefly: Cytotoxicity against HUVEC assessed as reduction in cell viability at 100 uM after 3 days by Celltiter-Glo assay. It counts as cell-based. Conditions: human, 72 h, time 3 day.
Data set [17] addresses CREB-binding protein (Homo sapiens) (UniProt Q92793). Briefly: Binding affinity to CBP-BRD (unknown origin) assessed as change in melting temperature at 50 uM by thermal shift assay.
Data set [18] addresses Bromodomain-containing protein 2 (Homo sapiens) (UniProt P25440). Kind of data set: Inhibition of BRD2-BD1 (unknown origin) at 1 uM using acetylated H4 as substrate incubated for 1 hr by AlphaScreen assay.
The target in data set [19] is Histone acetyltransferase p300 (Homo sapiens) (UniProt Q09472). Kind of data set: Inhibition of p300-BRD (unknown origin) at 1 uM using acetylated H4 as substrate incubated for 1 hr by AlphaScreen assay.
Sequence of Histone acetyltransferase p300 (Homo sapiens) (Q09472 whole entry): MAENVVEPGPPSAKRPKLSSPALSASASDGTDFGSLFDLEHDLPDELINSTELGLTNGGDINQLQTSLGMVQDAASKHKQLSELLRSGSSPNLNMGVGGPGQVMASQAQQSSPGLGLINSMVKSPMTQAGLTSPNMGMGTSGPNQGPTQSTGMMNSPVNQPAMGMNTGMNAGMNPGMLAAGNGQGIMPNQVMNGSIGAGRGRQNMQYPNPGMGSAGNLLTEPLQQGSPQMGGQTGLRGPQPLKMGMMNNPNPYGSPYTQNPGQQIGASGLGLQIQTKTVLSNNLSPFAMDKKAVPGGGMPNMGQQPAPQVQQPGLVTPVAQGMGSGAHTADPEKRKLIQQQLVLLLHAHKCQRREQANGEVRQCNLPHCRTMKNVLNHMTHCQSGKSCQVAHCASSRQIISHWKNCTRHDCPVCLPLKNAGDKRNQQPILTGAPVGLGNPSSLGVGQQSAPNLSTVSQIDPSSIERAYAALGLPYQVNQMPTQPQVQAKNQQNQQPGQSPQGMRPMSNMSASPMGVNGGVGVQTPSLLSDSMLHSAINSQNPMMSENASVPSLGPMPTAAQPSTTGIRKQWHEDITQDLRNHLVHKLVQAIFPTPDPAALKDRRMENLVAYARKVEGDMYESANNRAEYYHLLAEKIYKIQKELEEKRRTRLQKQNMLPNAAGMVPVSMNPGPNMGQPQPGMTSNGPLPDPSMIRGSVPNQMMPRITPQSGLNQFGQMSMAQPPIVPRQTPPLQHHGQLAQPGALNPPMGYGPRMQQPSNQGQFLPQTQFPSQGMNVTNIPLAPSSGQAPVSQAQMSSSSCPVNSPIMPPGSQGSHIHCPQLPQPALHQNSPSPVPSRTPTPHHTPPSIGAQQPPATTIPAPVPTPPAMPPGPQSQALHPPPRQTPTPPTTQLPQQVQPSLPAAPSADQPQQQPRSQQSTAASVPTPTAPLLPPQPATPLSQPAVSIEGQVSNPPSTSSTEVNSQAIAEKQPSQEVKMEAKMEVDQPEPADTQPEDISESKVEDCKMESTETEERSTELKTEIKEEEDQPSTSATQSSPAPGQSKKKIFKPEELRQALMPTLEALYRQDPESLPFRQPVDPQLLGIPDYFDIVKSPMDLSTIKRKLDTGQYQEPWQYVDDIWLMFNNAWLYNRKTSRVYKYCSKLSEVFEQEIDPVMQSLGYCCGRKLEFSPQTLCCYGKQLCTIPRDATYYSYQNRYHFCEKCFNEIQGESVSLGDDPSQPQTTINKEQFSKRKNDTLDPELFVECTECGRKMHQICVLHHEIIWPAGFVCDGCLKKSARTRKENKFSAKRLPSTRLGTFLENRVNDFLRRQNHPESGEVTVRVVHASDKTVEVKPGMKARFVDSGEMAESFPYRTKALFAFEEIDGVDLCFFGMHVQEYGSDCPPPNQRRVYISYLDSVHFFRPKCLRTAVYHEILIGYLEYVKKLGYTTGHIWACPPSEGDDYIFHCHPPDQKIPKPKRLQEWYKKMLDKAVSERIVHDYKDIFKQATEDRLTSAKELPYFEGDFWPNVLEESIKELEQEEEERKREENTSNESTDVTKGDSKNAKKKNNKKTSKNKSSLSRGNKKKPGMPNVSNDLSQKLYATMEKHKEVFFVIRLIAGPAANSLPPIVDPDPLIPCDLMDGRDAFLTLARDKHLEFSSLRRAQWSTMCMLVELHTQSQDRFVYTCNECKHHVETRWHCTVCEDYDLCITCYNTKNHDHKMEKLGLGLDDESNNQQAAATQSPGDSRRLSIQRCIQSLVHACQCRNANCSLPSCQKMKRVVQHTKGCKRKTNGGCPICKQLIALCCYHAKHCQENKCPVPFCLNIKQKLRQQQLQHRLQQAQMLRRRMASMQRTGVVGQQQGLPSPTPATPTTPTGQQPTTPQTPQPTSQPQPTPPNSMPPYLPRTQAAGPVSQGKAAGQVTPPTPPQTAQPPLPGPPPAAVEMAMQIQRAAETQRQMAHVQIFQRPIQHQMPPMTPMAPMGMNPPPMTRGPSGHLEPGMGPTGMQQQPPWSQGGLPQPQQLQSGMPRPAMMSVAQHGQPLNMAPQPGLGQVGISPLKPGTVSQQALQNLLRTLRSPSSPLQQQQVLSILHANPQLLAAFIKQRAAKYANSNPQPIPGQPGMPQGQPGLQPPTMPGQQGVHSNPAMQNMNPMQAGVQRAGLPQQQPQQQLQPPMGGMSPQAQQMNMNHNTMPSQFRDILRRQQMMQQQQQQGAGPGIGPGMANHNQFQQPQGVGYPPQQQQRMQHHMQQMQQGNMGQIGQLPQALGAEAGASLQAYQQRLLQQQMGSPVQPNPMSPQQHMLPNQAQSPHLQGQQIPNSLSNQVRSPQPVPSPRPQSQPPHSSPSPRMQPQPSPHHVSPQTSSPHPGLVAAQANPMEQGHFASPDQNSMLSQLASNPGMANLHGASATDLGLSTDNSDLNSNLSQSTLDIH
Data set [20] concerns the target Bromodomain-containing protein 4 (Homo sapiens) (UniProt O60885). Briefly: Binding affinity to BRD4-BD1 (unknown origin) assessed as change in melting temperature at 50 uM by thermal shift assay.
In data set [21] the target is T1, Nucleosome-remodeling factor subunit BPTF. Kind of data set: Inhibition of BPTF in human MV4-11 cells assessed as reduction in c-Myc mRNA level incubated for 24 hrs by RT-PCR analysis. Conditions: dose 2.5-20 µM. It counts as cell-based.
The target in data set [22] is Bromodomain-containing protein 4 (Homo sapiens) (UniProt O60885). Briefly: Inhibition of BRD4-BD1 (unknown origin) at 1 uM using acetylated H4 as substrate incubated for 1 hr by AlphaScreen assay.
The target in data set [23] is T1, Nucleosome-remodeling factor subunit BPTF. Briefly: Inhibition of BPTF in human MV4-11 cells assessed as reduction in CDK6 mRNA level incubated for 24 hrs by RT-PCR analysis. It counts as cell-based. Conditions: dose 2.5-20 µM.
For data set [24], the system named is MV4-11. Kind of data set: Induction of cell cycle arrest in human MV4-11 cells assessed as accumulation at G1 phase after 24 hrs by propidium iodide staining based flow cytometry analysis. It counts as functional. Conditions: dose 5-20 µM.
A further data set relates to MRC5. Kind of data set: Cytotoxicity against human MRC5 assessed as reduction in cell viability at 100 uM after 3 days by Celltiter-Glo assay. Conditions: mrc5, 72 h, time 3 day. It counts as cell-based.
The target of data set [25] is Bromodomain-containing protein 4 (Homo sapiens) (UniProt O60885). Kind of data set: Inhibition of BRD4-BD2 (unknown origin) at 1 uM using acetylated H4 as substrate incubated for 1 hr by AlphaScreen assay.
Data set [26] concerns the target Bromodomain-containing protein 2 (Homo sapiens) (UniProt P25440). Kind of data set: Binding affinity to BRD2-BD1 (unknown origin) assessed as change in melting temperature at 50 uM by thermal shift assay.
In data set [27] the target is T1, Nucleosome-remodeling factor subunit BPTF. Kind of data set: Binding affinity to N-terminal GST-tagged human BPTF (2914 to 3037 residues) expressed in Escherichia coli BL21-CodonPlus (DE3) cells at 200 uM by STD NMR spectroscopy.
Data set [28] has the same target. Kind of data set: Displacement of Halo-tagged histone H4 from NanoLuc-tagged BPTF (unknown origin) expressed in HEK293 cells by NanoBRET assay. It is filed as cell-based.
Data set [29] concerns the target Bromodomain-containing protein 2 (Homo sapiens) (UniProt P25440). Briefly: Inhibition of BRD2-BD2 (unknown origin) at 1 uM using acetylated H4 as substrate incubated for 1 hr by AlphaScreen assay.
Data set [30] has the same target. Briefly: Binding affinity to BRD2-BD2 (unknown origin) assessed as change in melting temperature at 50 uM by thermal shift assay.
The target of data set [31] is T1, Nucleosome-remodeling factor subunit BPTF. Kind of data set: Inhibition of N-terminal GST-tagged human BPTF (2914 to 3037 residues) expressed in Escherichia coli BL21-CodonPlus (DE3) cells at 1 uM incubated for 1 hr by AlphaScreen assay relative to control.
Data set [32] deals with SWI/SNF-related matrix-associated actin-dependent regulator of chromatin subfamily A member 2 (Homo sapiens) (UniProt P51531). Kind of data set: Inhibition of SMARCA2-BRD (unknown origin) at 1 uM using acetylated H4 as substrate incubated for 1 hr by AlphaScreen assay.
In data set [33] the target is Histone acetyltransferase p300 (Homo sapiens) (UniProt Q09472). Briefly: Binding affinity to p300-BRD (unknown origin) assessed as change in melting temperature at 50 uM by thermal shift assay.
The test system of data set [34] is MV4-11. Kind of data set: Antiproliferative activity against human MC4-11 cells assessed as reduction in cell viability after 5 days by Celltiter-Glo assay. Conditions: MV4-11, 120 h.

SMILES strings stand for the structures. The source made the active and inactive calls. The rule behind the calls is not given here.

Sequence of Bromodomain-containing protein 2 (Homo sapiens) (P25440 whole entry, looked up, the tested form may be a part): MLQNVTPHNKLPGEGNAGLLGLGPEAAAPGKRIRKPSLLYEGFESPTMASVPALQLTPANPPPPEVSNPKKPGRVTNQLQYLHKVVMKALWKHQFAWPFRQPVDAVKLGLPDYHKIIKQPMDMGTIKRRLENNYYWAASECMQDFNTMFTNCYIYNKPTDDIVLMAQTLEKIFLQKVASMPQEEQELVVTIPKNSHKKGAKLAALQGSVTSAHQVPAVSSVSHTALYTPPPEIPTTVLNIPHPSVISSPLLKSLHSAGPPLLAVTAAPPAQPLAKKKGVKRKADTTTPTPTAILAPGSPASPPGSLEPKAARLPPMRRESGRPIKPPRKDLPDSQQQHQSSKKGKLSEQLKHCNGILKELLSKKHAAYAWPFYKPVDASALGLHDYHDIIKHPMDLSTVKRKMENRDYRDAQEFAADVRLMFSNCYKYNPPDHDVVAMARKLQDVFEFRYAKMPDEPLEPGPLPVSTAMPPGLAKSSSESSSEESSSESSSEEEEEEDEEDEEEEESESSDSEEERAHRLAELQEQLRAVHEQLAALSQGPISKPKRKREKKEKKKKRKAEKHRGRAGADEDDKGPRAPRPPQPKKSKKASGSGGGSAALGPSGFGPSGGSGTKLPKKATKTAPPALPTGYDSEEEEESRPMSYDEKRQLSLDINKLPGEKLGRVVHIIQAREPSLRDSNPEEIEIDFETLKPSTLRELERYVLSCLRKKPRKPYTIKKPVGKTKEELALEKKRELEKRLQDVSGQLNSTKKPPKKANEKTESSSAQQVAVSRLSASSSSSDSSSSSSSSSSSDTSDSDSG

The term Kd denotes the free concentration of one partner at which half of the binding sites on the other are occupied at equilibrium, for simple one-to-one binding. A higher Kd goes with a looser complex. `CCOc1c(I)cc(C(N)=O)cc1OC` displayed a Kd in data set [1] of 17900 nM.

Usually IC50 stands for the concentration at which inhibition is half-maximal. In turn, `CCCNc1cc(-c2cc(OC)c3c(ccn3CCCN(C)C)c2)nc(S(C)(=O)=O)n1` registered an IC50 in [2] of 63.8 nM.

On to `CNc1cc(-c2ccccc2)nc(S(C)(=O)=O)n1`, for which the IC50 in [2] was 7800 nM.

Regarding `CNc1cc(-c2ccc3ccn(CCCN(C)C)c3c2)nc(S(C)(=O)=O)n1`, half-maximal inhibition in [2] (IC50) required 2100 nM.

`CN(C)CCCOc1ccc(-c2cc(NCCCn3cccn3)nc(S(C)(=O)=O)n2)cc1`: the Kd worked out at 120 nM in [1] and 200 nM in data set [3].

As to `Cc1cn(CCCN(C)C)c2ccc(-c3nc(S(C)(=O)=O)nc4[nH]ccc34)cc12`, the IC50 in data set [2] worked out at 157 nM.

The compound `CCC(C)Nc1cc(-c2ccc3c(ccn3CCCN(C)C)c2)nc(S(C)(=O)=O)n1` (stereo not drawn) yielded an IC50 in data set [2] of 288 nM.

With `CNc1cc(-c2ccc3c(ccn3CCCN(C)C)c2)nc(S(C)(=O)=O)n1`, the IC50 in [2] was 32.7 nM.

For orientation: ΔTm means the change in melting temperature against a reference sample. `CCCNc1cc(-c2ccc3c(ccn3CCCN(C)C)c2)nc(S(C)(=O)=O)n1`: the ΔTm is 6.12 °C in data set [4], 8.9 °C in data set [5], 7.97 °C in [6] and 3.87 °C in data set [8]. In data set [7], the dissociation constant (Kd) worked out at 49600 nM. The IC50 in data set [2] amounted to 16 nM.

Turning to `CNc1cc(-c2ccc3c(ccn3CCCN(C)C)c2)nc([S+](C)[O-])n1` (stereo not drawn), the midpoint of inhibition in data set [2], the IC50, lay at 59.3 nM.

Take `CN(C)CCCn1ccc2cc(-c3cc(N(C)C)nc(S(C)(=O)=O)n3)ccc21`: the IC50 in data set [2] is 14700 nM.

In the case of `CNc1cc(-c2ccc3c(ccn3CCN(C)C)c2)nc(S(C)(=O)=O)n1`, the IC50 in [2] came to 36.9 nM.

As to `CCCNc1cc(-c2ccc3c(ccn3CCCN(C)C)c2)nc([S+](C)[O-])n1` (stereo not drawn), in [2], the midpoint of inhibition, the IC50, lay at 145 nM.

For orientation: inhibition means the percentage by which the read-out fell short of the control. One may read the EC50 as the concentration needed to bring the measured effect to its halfway point. Lower therefore signals higher potency in that assay. In the case of `CN(C)CCCn1ccc2cc(-c3nc(S(C)(=O)=O)nc4[nH]ccc34)ccc21`, the values for the ΔTm in data set [4], in [5] and in data set [6] were 5.02 °C, 7.66 °C and 6.5 °C, respectively. The outcome in [9], in [15], in [17], in data set [20], in data set [26] and in data set [30] was inactive. In addition, the outcome in [33] was inactive. Also, the Activity entry in the data set on MV4-11 [10] is “Dose-Dependent Effect”; in the data set on MV4-11 [13] it was “Dose-Dependent Effect”; with HUVEC, “Non-Toxic”; in the data set with MV4-11 [24], “Dose-Dependent Effect”; in the data set with MRC5, “Non-Toxic”. In addition, the outcome (in the data set with MV4-11 [11]; in data set [12]; in [27]) was Active. For the same compound, the inhibition entry in data set [14] is “Dose-Dependent Effect”; in data set [21] it was “Dose-Dependent Effect”; in data set [23], “Dose-Dependent Effect”; in data set [31], 100%. Also, the inhibition result in data set [16], in data set [18], in data set [19], in data set [22], in data set [25] and in data set [29] was “inactive” throughout. The inhibition result in data set [32] is “inactive”. The same compound gave an EC50 in data set [28] of 120 nM. The Kd in [7] turned out to be 20.7 nM. Also, the IC50 was 890 nM with MV4-11 [34] and 26.9 nM in data set [2].

In the case of `CNc1cc(-c2ccc3[nH]ccc3c2)nc(S(C)(=O)=O)n1`, the ΔTm in data set [4] came to 1.29 °C; in data set [5], 2.4 °C; in [6], 1.67 °C; in [8] it was 1.22 °C. Binding in data set [7] was put at a Kd of 2810 nM. The same compound returned an IC50 in data set [2] of 698 nM.

For the compound `CNc1cc(-c2cccc3ncccc23)nc(S(C)(=O)=O)n1`, the IC50 in data set [2] turned out to be 1700 nM.

Turning to `CCCNc1cc(-c2ccc3c(c2)c(C)cn3CCCN(C)C)nc(S(C)(=O)=O)n1`, the IC50 in data set [2] worked out at 58.6 nM.

Take `CCNc1cc(-c2ccc3c(ccn3CCCN(C)C)c2)nc(S(C)(=O)=O)n1`: the IC50 in data set [2] is 28.8 nM.

Compound `Cc1c(Nc2ccc(S(=O)(=O)N3CCN(C)CC3)cc2F)nc2ccc(-c3cnn(C4CC4)c3)cn2c1=O` registered a Kd in data set [1] of 71 nM.

`CCCCNc1cc(-c2ccc3c(ccn3CCCN(C)C)c2)nc(S(C)(=O)=O)n1` showed an IC50 in data set [2] of 114 nM.

Source of the values: ChEMBL document CHEMBL4828734, “Discovery of High-Affinity Inhibitors of the BPTF Bromodomain” (J Med Chem, 2021).
